The test system of one data set is PDE4. Nature of the data set: PDE4 inhibition, scintillation proximity assay (SPA). Format: biochemical. The conditions noted are these: scintillation proximity assay; class symbols; read-out: PDE4 Inhibitory Activity. Summed up:
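Scintillation proximity read-out: [2,8-3H]-cAMP hydrolysis by PDE4 ran 120 min at room temperature in Tris-HCl pH 7.4 buffer with 8.3 mM MgCl2, 1.7 mM EGTA and 3 mg/mL BSA. Bead-bound product (YSi-SPA with ZnSO4, 15 min) counted; blank lacks enzyme, control has DMSO only.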
(SPA uses beads or plates that emit light when radiolabelled molecules are held near them.)

Data set [1] can be described thus: Hepatic metabolic stability (rat liver microsome method). Format: in vitro ADME. The conditions noted are these: rat liver microsomes 0.5 mg/mL, test substance 1 μM, NADPH 1 mM, 37° C., 30 minutes. Summed up: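 Test compound (1 μM) preincubated with rat liver microsomes (0.5 mg/mL) in 100 mM potassium phosphate pH 7.4 at 37° C; NADPH (1 mM) started reaction, acetonitrile stopped it at 0 and 30 min. LC-MS quantitation; % remaining = 30-min/0-min ×100, graded A ≥75%, B 60–<75%, C 45–<60%, D <45%.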
For orientation: Liver microsomes are vesicles of endoplasmic reticulum, rich in cytochrome P450 enzymes.

SMILES strings stand for the structures.

As for `O=C(NCCO)c1ccc(-c2nccs2)c2oc(N3CC4CC(C3)N4)nc12` [Example 355, 2-(3,6-diazabicyclo [3.1.1]heptan-3-yl)-N-(2-hydroxyethyl)-7-(thiazol-2-yl) benzo[d] oxazole-4-carboxamide], the IC50 with PDE4 is under 100 nM. Also, in data set [1], the “Residual ratio (% remaining for 30-minute reaction)” value is “A (a % remaining rate of 75% or more)”.
`CN(CCO)C(=O)c1ccc(-c2nccs2)c2oc(N3CC4CC(C3)N4)nc12` [Example 356, 2-(3,6-diazabicyclo [3.1.1]heptan-3-yl)-N-(2-hydroxyethyl)-N-methyl-7-(thiazol-2-yl)benzo[d] oxazole-4-carboxamide]: in the data set with PDE4, the IC50 is 100 to 1000 nM. For the same compound, in data set [1], the “Residual ratio (% remaining for 30-minute reaction)” value is “A (a % remaining rate of 75% or more)”.
Taken in the same sequence, the figures for `O=C(NC1CC1)c1ccc(-c2nccs2)c2oc(N3CC4CC(C3)N4)nc12` [Example 357, 2-(3,6-diazabicyclo [3.1.1]heptan-3-yl)-N-cyclopropyl-7-(thiazol-2-yl) benzo[d]oxazole-4-carboxamide] were under 100 nM and “A (a % remaining rate of 75% or more)”.
With `CCNC(=O)c1ccc(-c2nccs2)c2oc(N3CC4CC(C3)N4)nc12` [Example 358, 2-(3,6-diazabicyclo [3.1.1]heptan-3-yl)-N-ethyl-7-(thiazol-2-yl) benzo[d]oxazole-4-carboxamide], the IC50 with PDE4 is under 100 nM. Moreover, the “Residual ratio (% remaining for 30-minute reaction)” value in data set [1] was “A (a % remaining rate of 75% or more)”.
Taken in the same sequence, the figures for `O=C(c1ccc(-c2nccs2)c2oc(N3CC4CC(C3)N4)nc12)N1CCOCC1` [Example 359, (2-(3,6-diazabicyclo [3.1.1]heptan-3-yl)-7-(thiazol-2-yl)benzo[d]oxazol-4-yl) (morpholino) methanone] were 100 to 1000 nM and “A (a % remaining rate of 75% or more)”.
`O=C(c1ccc(-c2nccs2)c2oc(N3CC4CC(C3)N4)nc12)N1CCCC1` [Example 360, (2-(3,6-diazabicyclo [3.1.1]heptan-3-yl)-7-(thiazol-2-yl)benzo[d]oxazole-4-yl)(pyrrolidin-1-yl)methanone]: the IC50 in the data set with PDE4 fell in the range of 100 to 1000 nM. Further, the “Residual ratio (% remaining for 30-minute reaction)” value in data set [1] was “A (a % remaining rate of 75% or more)”.
Taken in the same sequence, the figures for `CC(C)(O)C(F)(F)Oc1ccc(-c2ccc(Cl)cn2)c2oc(N3CC4CC(C3)N4)nc12` [Example 363, 1-((2-(3,6-diazabicyclo [3.1.1]heptan-3-yl)-7-(5-chloropyridin-2-yl)benzo[d]oxazol-4-yl)oxy)-1,1-difluoro-2-methyl-propan-2-ol] were under 100 nM and “A (a % remaining rate of 75% or more)”.
As to `c1csc(-c2ccc(N3CCOCC3)c3nc(N4CC5CC(C4)N5)oc23)n1` [Example 369, 2-(3,6-diazabicyclo[3.1.1]heptan-3-yl)-4-morpholino-7-(thiazol-2-yl) benzo[d]oxazole], the IC50 in the data set on PDE4 is under 100 nM. Moreover, in data set [1], the “Residual ratio (% remaining for 30-minute reaction)” value was “B (60% or more and less than 75%)”.
Consider `OCC(O)C(F)(F)Oc1ccc(-c2nccs2)c2oc(N3CC4CC(C3)N4)nc12` (stereo not drawn) [Example 370, 3-((2-(3,6-diazabicyclo[3.1.1]heptan-3-yl)-7-(thiazol-2-yl)benzo[d]oxazol-4-yl)oxy)-3,3-difluoropropane-1,2-diol], for which the IC50 in the data set on PDE4 is under 100 nM. The “Residual ratio (% remaining for 30-minute reaction)” value in data set [1] was “A (a % remaining rate of 75% or more)”.
Consider `OCC(F)(F)Oc1ccc(-c2nccs2)c2oc(N3CC4CC(C3)N4O)nc12` [Example 374, 3-(4-(1,1-difluoro-2-hydroxyethoxy)-7-(thiazol-2-yl)benzo [d]oxazol-2-yl)-3,6-diazabicyclo[3.1.1] heptan-6-ol], for which the IC50 with PDE4 was under 100 nM. In addition, the “Residual ratio (% remaining for 30-minute reaction)” value in data set [1] is “B (60% or more and less than 75%)”.
For the compound `OCc1cccnc1Oc1ccc(-c2nccs2)c2oc(N3CC4CC(C3)N4)nc12` [Example 376, (2-((2-(3,6-diazabicyclo[3.1.1]heptan-3-yl)-7-(thiazol-2-yl)benzo[d]oxazol-4-yl)oxy)pyridin-3-yl)methanol], the IC50 with PDE4 is under 100 nM. Moreover, the “Residual ratio (% remaining for 30-minute reaction)” value in data set [1] is given as “A (a % remaining rate of 75% or more)”.
With `c1cc(-c2nccs2)c2oc(N3CC4CC(C3)N4)nc2c1` [Example 382, 2-(3,6-diaza-bicyclo[3.1.1]heptan-3-yl)-7-(thiazol-2-yl) benzo[d]oxazole], the IC50 with PDE4 is under 100 nM. Moreover, the “Residual ratio (% remaining for 30-minute reaction)” value in data set [1] was “B (60% or more and less than 75%)”.
Regarding `O=S(=O)(NCCO)c1ccc(-c2nccs2)c2oc(N3CC4CC(C3)N4)nc12` [Example 385, 2-(3,6-diazabicyclo[3.1.1]heptan-3-yl)-N-(2-hydroxyethyl)-7-(thiazol-2-yl) benzo[d]oxazole-4-sulfonamide], in the data set on PDE4, the IC50 was under 100 nM. Besides, the “Residual ratio (% remaining for 30-minute reaction)” value in data set [1] was “A (a % remaining rate of 75% or more)”.
Taken in the same sequence, the figures for `COCCNS(=O)(=O)c1ccc(-c2nccs2)c2oc(N3CC4CC(C3)N4)nc12` [Example 387, 2-(3,6-diazabicyclo[3.1.1]heptan-3-yl)-N-(2-methoxyethyl)-7-(thiazol-2-yl)benzo [d]oxazole-4-sulfonamide] were under 100 nM and “A (a % remaining rate of 75% or more)”.
As for `O=S(=O)(c1ccc(-c2nccs2)c2oc(N3CC4CC(C3)N4)nc12)N1CCOCC1` [Example 391, 2-(3,6-diazabicyclo [3.1.1]heptan-3-yl)-4-(morpholino-sulfonyl)-7-(thiazol-2-yl)benzo [d]oxazole], the IC50 in the data set on PDE4 is under 100 nM. Besides, in data set [1], the “Residual ratio (% remaining for 30-minute reaction)” value was “B (60% or more and less than 75%)”.
As for `COCC(F)(F)Oc1ccc(-c2nccs2)c2oc(N3CC4CC(C3)N4)nc12` [Example 392, 2-(3,6-diazabicyclo[3.1.1]heptan-3-yl)-4-(1,1-difluoro-2-methoxyethoxy)-7-(thiazol-2-yl) benzo[d]oxazole], the IC50 in the data set with PDE4 is under 100 nM. Also, the “Residual ratio (% remaining for 30-minute reaction)” value in data set [1] was “B (60% or more and less than 75%)”.
As to `Cn1ccc(-c2ccc(OC(F)(F)C(C)(C)O)c3nc(N4CC5CC(C4)N5)oc23)n1` [Example 394, 1-((2-(3,6-diazabicyclo[3.1.1]heptan-3-yl)-7-(1-methyl-1H-pyrazol-3-yl)benzo[d]oxazol-4-yl)oxy)-1,1-difluoro-2-methylpropan-2-ol], the IC50 in the data set with PDE4 is 100 to 1000 nM. Further, the “Residual ratio (% remaining for 30-minute reaction)” value in data set [1] was “A (a % remaining rate of 75% or more)”.
With `CCC(O)C(F)(F)Oc1ccc(-c2nccs2)c2oc(N3CC4CC(C3)N4)nc12` (stereo not drawn) [Example 395, 1-((2-(3,6-diazabicyclo[3.1.1]heptan-3-yl)-7-(thiazol-2-yl)benzo[d]oxazol-4-yl)oxy)-1,1-difluorobutan-2-ol], the IC50 with PDE4 was under 100 nM. Also, the “Residual ratio (% remaining for 30-minute reaction)” value in data set [1] is “B (60% or more and less than 75%)”.
With `OC1CCN(c2ccc(-c3nccs3)c3oc(N4CC5CC(C4)N5)nc23)CC1` [Example 397, 1-(2-(3,6-diazabicyclo[3.1.1]heptan-3-yl)-7-(thiazol-2-yl)benzo [d]oxazol-4-yl) piperidin-4-ol], the IC50 in the data set with PDE4 is under 100 nM. Also, in data set [1], the “Residual ratio (% remaining for 30-minute reaction)” value is given as “A (a % remaining rate of 75% or more)”.
Turning to `CC(C)(O)C(F)(F)Oc1c(Br)cc(-c2nccs2)c2oc(N3CC4CC(C3)N4)nc12` [Example 399, 1-((2-(3,6-diazabicyclo [3.1.1]heptan-3-yl)-5-bromo-7-(thiazol-2-yl)benzo[d]oxazol-4-yl)oxy)-1,1-difluoro-2-methylpropan-2-ol], the IC50 with PDE4 is under 100 nM. The “Residual ratio (% remaining for 30-minute reaction)” value in data set [1] is “B (60% or more and less than 75%)”.
In the case of `CC(C)(O)C(F)(F)Oc1c(Cl)cc(-c2nccs2)c2oc(N3CC4CC(C3)N4)nc12` [Example 400, 1-((2-(3,6-diazabicyclo [3.1.1]heptan-3-yl)-5-chloro-7-(thiazol-2-yl)benzo[d]oxazol-4-yl)oxy)-1,1-difluoro-2-methylpropan-2-ol], the IC50 with PDE4 is under 100 nM. The “Residual ratio (% remaining for 30-minute reaction)” value in data set [1] is “B (60% or more and less than 75%)”.
Regarding `OCC(F)(F)Oc1c(Cl)cc(-c2nccs2)c2oc(N3CC4CC(C3)N4)nc12` [Example 401, 2-((2-(3,6-diazabicyclo [3.1.1]heptan-3-yl)-5-chloro-7-(thiazol-2-yl)benzo[d]oxazol-4-yl)oxy)-2,2-difluoroethan-1-ol], in the data set with PDE4, the IC50 was under 100 nM. In addition, the “Residual ratio (% remaining for 30-minute reaction)” value in data set [1] was “A (a % remaining rate of 75% or more)”.
With `OCC(F)(F)Oc1ccc(-c2nccs2)c2oc(N3CC4CCC(C3)N4)nc12` [Example 404, 2-((2-(3,8-diazabicyclo [3.2.1]octan-3-yl) 7-(thiazol-2-yl)benzo[d]oxazol-4-yl)oxy)-2,2-difluoroethan-1-ol], the IC50 in the data set on PDE4 was under 100 nM. The “Residual ratio (% remaining for 30-minute reaction)” value in data set [1] was “B (60% or more and less than 75%)”.
As to `CC(C)(O)C(F)(F)Oc1ccc(-c2nccs2)c2oc(N3CC4CCC(C3)N4)nc12` [Example 405, 1-((2-(3,8-diazabicyclo [3.2.1]octan-3-yl)-7-(thiazol-2-yl)benzo[d]oxazol-4-yl)oxy)-1,1-difluoro-2-methylpropan-2-ol], the IC50 in the data set with PDE4 was under 100 nM. Besides, the “Residual ratio (% remaining for 30-minute reaction)” value in data set [1] was “B (60% or more and less than 75%)”.

For the origin of these results see patent publication US10669283B2, “Compound and pharmacologically acceptable salt thereof” (MEIJI SEIKA PHARMA CO., LTD., priority 2016, dated 2020).
